Each compound was assayed against T1, human B1R (Homo sapiens, UniProt P46663) (assay: FLIPR Ca2+ functional assay, B1R antagonism, human B1R in CHO K1 cells). Settings: test substance 10 μM; hB1R CHO K1 cells; agonist Lys-Des-Arg9 bradykinin at EC80; % of maximum achievable inhibition.
T1 construct: expressed in transfected cells; host or cells: CHO K1 cells (Chinese hamster ovary), stably transfected
T1 sequence (P46663 1-353): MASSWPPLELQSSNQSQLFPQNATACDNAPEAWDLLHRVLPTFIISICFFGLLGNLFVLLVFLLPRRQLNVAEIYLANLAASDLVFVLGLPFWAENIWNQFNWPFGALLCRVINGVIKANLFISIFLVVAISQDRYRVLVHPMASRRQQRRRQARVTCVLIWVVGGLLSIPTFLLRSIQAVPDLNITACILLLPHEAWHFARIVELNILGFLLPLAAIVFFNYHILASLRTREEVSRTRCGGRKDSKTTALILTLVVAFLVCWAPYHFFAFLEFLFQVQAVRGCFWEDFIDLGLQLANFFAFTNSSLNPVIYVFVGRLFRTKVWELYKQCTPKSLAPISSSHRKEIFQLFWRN
Format: cell-based
Method: The agonistic or antagonistic action of substances on the bradykinin 1 receptor (B1R) of the human and rat species can be quantified with ectopically expressing cell lines (CHO K1 cells) and with the aid of a Ca^2+-sensitive dye (Fluo-4) using a fluorescent imaging plate reader (FLIPR). The value in % activation is based on the Ca^2+ signal after addition of Lys-Des-Arg^9 bradykinin (0.5 nM) or Des-Arg^9 bradykinin (100 nM). Antagonists lead to a suppression of the Ca^2+ influx following administration of the agonist. The % inhibition in comparison with the maximum achievable inhibition is indicated.
1. Functional Investigation on the Bradykinin 1 Receptor (B1R) The agonistic or antagonistic action of substances can be determined on the bradykinin 1 receptor (B1R) of the human and rat species with the following assay. According to this assay, the Ca^2+ inflow through the channel is quantified with the aid of a Ca^2+-sensitive dye (Fluo-4 type, Molecular Probes Europe BV, Leiden, Netherlands) in a fluorescent imaging plate reader (FLIPR, Molecular Devices, Sunnyvale, USA). 2. Method: Chinese hamster ovary cells (CHO K1 cells) which are stably transfected with the human B1R gene (hB1R cells) or the B1R gene of the rat (rB1R cells) are used. For functional investigations these cells are plated-out onto black 96-well plates with a clear base (BD Biosciences, Heidelberg, Germany or Greiner, Frickenhausen, Germany) in a density of 20,000-35,000 cells/well. Overnight the cells are incubated at 37° C. and 5% CO2 in culture medium (hB1R cells: Ham's Nutrient Mixture F12, Gibco Invitrogen GmbH, Karlsruhe, Germany or DMEM, Sigma-Aldrich, Taufkirchen, Germany; rB1R cells: D-MEM/F12, Gibco Invitrogen, Karlsruhe, Germany) with 10 vol. % FBS (foetal bovine serum, Gibco Invitrogen GmbH, Karlsruhe, Germany or PAN Biotech GmbH, Aidenbach, Germany).
On the following day the cells are loaded with 2.13 μM Fluo-4 (Molecular Probes Europe BV, Leiden, Netherlands) in HBSS buffer (Hank's buffered saline solution, Gibco Invitrogen GmbH, Karlsruhe, Germany) with 2.5 mM probenecid (Sigma-Aldrich, Taufkirchen, Germany) and 10 mM HEPES (Sigma-Aldrich, Taufkirchen, Germany) for 60 min at 37° C. The plates are subsequently washed twice with HBSS buffer, and HBSS buffer which additionally contains 0.1% BSA (bovine serum albumin; Sigma-Aldrich, Taufkirchen, Germany), 5.6 mM glucose and 0.05% gelatine (Merck KGaA, Darmstadt, Germany) is added. After a further incubation of 20 minutes at RT, the plates are inserted into the FLIPR for Ca^2+ measurement. Alternatively they are washed with buffer A (15 mM HEPES, 80 mM NaCl, 5 mM KCl, 1.2 mM CaCl2, 0.7 mM MgSO4, 2 g/l glucose, 2.5 mM probenecid) and loaded with buffer A with added 2.5 μM Fluo-4 and 0.025% Pluronic F127 (Sigma-Aldrich, Taufkirchen, Germany). The cells are then washed twice with buffer A and incubated for 30 minutes with buffer A, which additionally contains 0.05% BSA and 0.05% gelatine, at RT and then used for Ca^2+ measurement in the FLIPR. The Ca^2+-dependent fluorescence is measured here before and after addition of substances (λex=488 nm, λem=540 nm). The quantification is performed by measuring the highest fluorescence intensity (FC, fluorescence counts) over time.
The FLIPR protocol comprises two additions of substance. Test substances (10 μM) are first pipetted onto the cells and the Ca^2+ inflow is compared with the control (hB1R: Lys-Des-Arg^9 bradykinin >=50 nM; rB1R: Des-Arg^9 bradykinin 10 μM). The value in % activation based on the Ca^2+ signal after addition of Lys-Des-Arg^9 bradykinin (>=50 nM) or Des-Arg^9 bradykinin (10 μM) is obtained therefrom. After incubation for 10-20 minutes, Lys-Des-Arg^9 bradykinin (hB1R) or Des-Arg^9 bradykinin (rB1R) is applied in the EC80 concentration and the inflow of Ca^2+ is likewise determined.
Antagonists lead to a suppression of the Ca^2+ inflow. The % inhibition in comparison with the maximum achievable inhibition is calculated. […]

Row | Structure (SMILES) | inhibition at 10 µM
1 | Cc1ccc(S(=O)(=O)N2CCn3cccc3C2CC(=O)NC2CCc3cc(CN4CCN(C)CC4)ccc3C2)cc1 (stereo not shown) [Example 81, N-[6-[(4-Methyl-piperazin-1-yl)-methyl]-1,2,3,4-tetrahydro-naphthalen-2-yl]-2-[2-(p-tolylsulfonyl)-1,2,3,4-tetrahydro-pyrrolo[1,2-a]pyrazin-1-yl]-acetamide] | 99.1%

These compounds were tested against T2, B1R of the rat (Rattus norvegicus, UniProt P97583) (assay: FLIPR Ca2+ functional assay, B1R antagonism, rat B1R in CHO K1 cells). Settings: test substance 10 μM; rB1R CHO K1 cells; agonist Des-Arg9 bradykinin at EC80; % of maximum achievable inhibition.
T2 construct: expressed in transfected cells; host or cells: CHO K1 cells (Chinese hamster ovary), stably transfected
T2 sequence (P97583 1-337): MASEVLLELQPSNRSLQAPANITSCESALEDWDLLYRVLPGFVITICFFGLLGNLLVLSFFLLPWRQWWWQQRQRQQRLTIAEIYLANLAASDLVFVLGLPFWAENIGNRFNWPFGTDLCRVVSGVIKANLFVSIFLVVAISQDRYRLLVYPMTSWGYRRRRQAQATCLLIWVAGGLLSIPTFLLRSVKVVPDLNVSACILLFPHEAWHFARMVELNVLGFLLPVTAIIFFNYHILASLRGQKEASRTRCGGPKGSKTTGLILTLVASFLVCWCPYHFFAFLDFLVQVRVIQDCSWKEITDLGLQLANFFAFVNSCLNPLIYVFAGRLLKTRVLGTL
Format: cell-based
How it was run: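 IC50 values come from varied compound concentrations applied 10-20 min before an EC80 agonist challenge, with Des-Arg9 bradykinin for rat and Lys-Des-Arg9 bradykinin for human receptor. Ca2+ influx in Fluo-4-loaded CHO K1 transfectants was measured by FLIPR peak fluorescence. Data are % inhibition vs maximum, n=2-3, N>=2.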

Row | inhibition at 10 µM | Structure (SMILES)
2 | -10.5% | Cc1cccc(Cl)c1S(=O)(=O)N1CCn2cccc2C1CC(=O)N1CCN(Cc2ccc3c(c2)OCO3)CC1 (stereo not shown) [Example 252, 1-[4-(1,3-Benzodioxol-5-yl-methyl)-piperazin-1-yl]-2-[2-[(2-chloro-6-methyl-phenyl)sulfonyl]-1,2,3,4-tetrahydro-pyrrolo[1,2-a]pyrazin-1-yl]-ethanone]
3 | -39.1% | Cc1cccc(Cl)c1S(=O)(=O)N1CCn2cccc2C1CC(=O)N1CCN(CCC#N)CC1 (stereo not shown) [Example 253, 3-[4-[2-[2-[(2-Chloro-6-methyl-phenyl)sulfonyl]-1,2,3,4-tetrahydro-pyrrolo[1,2-a]pyrazin-1-yl]-acetyl]-piperazin-1-yl]-propionitrile]
4 | 25.2% | Cc1cccc(Cl)c1S(=O)(=O)N1CCn2cccc2C1CC(=O)N1CCN(c2ncccn2)CC1 (stereo not shown) [Example 162, 2-[2-[(2-Chloro-6-methyl-phenyl)sulfonyl]-1,2,3,4-tetrahydro-pyrrolo[1,2-a]pyrazin-1-yl]-1-(4-pyrimidin-2-yl-piperazin-1-yl)-ethanone]
5 | 29.8% | Cc1cccc(Cl)c1S(=O)(=O)N1CCn2cccc2C1CC(=O)N1CCN(c2ncccc2C#N)CC1 (stereo not shown) [Example 261, 2-[4-[2-[2-[(2-Chloro-6-methyl-phenyl)sulfonyl]-1,2,3,4-tetrahydro-pyrrolo[1,2-a]pyrazin-1-yl]-acetyl]-piperazin-1-yl]-pyridine-3-carbonitrile]
6 | -38% | Cc1cccc(Cl)c1S(=O)(=O)N1CCn2cccc2C1CC(=O)N1CCCCC1Cc1ccccn1 (stereo not shown) [Example 250, 2-[2-[(2-Chloro-6-methyl-phenyl)sulfonyl]-1,2,3,4-tetrahydro-pyrrolo[1,2-a]pyrazin-1-yl]-1-[2-(pyridin-2-yl-methyl)-piperidin-1-yl]-ethanone]

More lines, now with the values behind:

Row | Structure (SMILES) | inhibition at 10 µM
7 | Cc1ccc(S(=O)(=O)N2CCn3cccc3C2CC(=O)NC2CCc3cc(CN4CCN(C)CC4)ccc3C2)cc1 (stereo not shown) [Example 81, N-[6-[(4-Methyl-piperazin-1-yl)-methyl]-1,2,3,4-tetrahydro-naphthalen-2-yl]-2-[2-(p-tolylsulfonyl)-1,2,3,4-tetrahydro-pyrrolo[1,2-a]pyrazin-1-yl]-acetamide] | 102%
8 | COc1cc(C)c(S(=O)(=O)N2CCn3cccc3C2CC(=O)NCCCN2CCOCC2)c(C)c1 (stereo not shown) [Example 142, 2-[2-[(4-Methoxy-2,6-dimethyl-phenyl)sulfonyl]-1,2,3,4-tetrahydro-pyrrolo[1,2-a]pyrazin-1-yl]-N-(3-morpholin-4-yl-propyl)-acetamide] | 37.9%
9 | COc1cc(C)c(S(=O)(=O)N2CCn3cccc3C2CC(=O)N2CCCCC2Cc2ccncc2)c(C)c1 (stereo not shown) [Example 245, 2-[2-[(4-Methoxy-2,6-dimethyl-phenyl)sulfonyl]-1,2,3,4-tetrahydro-pyrrolo[1,2-a]pyrazin-1-yl]-1-[2-(pyridin-4-yl-methyl)-piperidin-1-yl]-ethanone] | -21.5%
10 | O=C(CC1c2cccn2CCN1S(=O)(=O)c1ccc(C(F)(F)F)cc1Cl)NCC1CCCN(Cc2ccccc2)C1 (stereo not shown) [Example 254, N-[(1-Benzyl-piperidin-3-yl)-methyl]-2-[2-[[2-chloro-4-(trifluoromethyl)-phenyl]sulfonyl]-1,2,3,4-tetrahydro-pyrrolo[1,2-a]pyrazin-1-yl]-acetamide] | 8.85%
11 | CC1CCCC(C)N1CCCNC(=O)CC1c2cccn2CCN1S(=O)(=O)c1cccc(C(F)(F)F)c1 (stereo not shown) [Example 184, N-[3-(2,6-Dimethyl-piperidin-1-yl)-propyl]-2-[2-[[3-(trifluoromethyl)phenyl]sulfonyl]-1,2,3,4-tetrahydro-pyrrolo[1,2-a]pyrazin-1-yl]-acetamide] | 19.4%
12 | O=C(CC1c2cccn2CCN1S(=O)(=O)c1ccccc1)N1CCN(c2ncc(C(F)(F)F)cc2Cl)CC1 (stereo not shown) [Example 265, 2-[2-(Benzenesulfonyl)-1,2,3,4-tetrahydro-pyrrolo[1,2-a]pyrazin-1-yl]-1-[4-[3-chloro-5-(trifluoromethyl)-pyridin-2-yl]-piperazin-1-yl]-ethanone] | 17.9%
13 | Cc1ccc(C)n1CCN1CCN(C(=O)CC2c3cccn3CCN2S(=O)(=O)c2ccccc2)CC1 (stereo not shown) [Example 178, 2-[2-(Benzenesulfonyl)-1,2,3,4-tetrahydro-pyrrolo[1,2-a]pyrazin-1-yl]-1-[4-[2-(2,5-dimethyl-1H-pyrrol-1-yl)-ethyl]-piperazin-1-yl]-ethanone] | 17.2%
14 | CN1CCN(CC(NC(=O)CC2c3cccn3CCN2S(=O)(=O)c2cccc(C(F)(F)F)c2)c2ccccc2)CC1 (stereo not shown) [Example 185, N-[2-(4-Methyl-piperazin-1-yl)-1-phenyl-ethyl]-2-[2-[[3-(trifluoromethyl)phenyl]sulfonyl]-1,2,3,4-tetrahydro-pyrrolo[1,2-a]pyrazin-1-yl]-acetamide] | 76.4%
15 | Cc1cccc(Cl)c1S(=O)(=O)N1CCn2cccc2C1CC(=O)NCCCN1C(C)CCCC1C (stereo not shown) [Example 155, 2-[2-[(2-Chloro-6-methyl-phenyl)sulfonyl]-1,2,3,4-tetrahydro-pyrrolo[1,2-a]pyrazin-1-yl]-N-[3-(2,6-dimethyl-piperidin-1-yl)-propyl]-acetamide] | 61.5%
16 | COc1cc(C)c(S(=O)(=O)N2CCn3cccc3C2CC(=O)N2CCN(Cc3ccc(C)cc3)CC2)c(C)c1 (stereo not shown) [Example 241, 2-[2-[(4-Methoxy-2,6-dimethyl-phenyl)sulfonyl]-1,2,3,4-tetrahydro-pyrrolo[1,2-a]pyrazin-1-yl]-1-[4-(p-tolyl-methyl)-piperazin-1-yl]-ethanone] | 46.8%

Reference: patent US8158628B2, “Sulfonylated 1,2,3,4-tetrahydropyrrolo[1,2-a]pyrazine compounds and their use as pharmaceuticals” (Gruenenthal GmbH, priority 2009, dated 2012)
